# Laboratory results as given in patent US6699877B2 (Gruenenthal GmbH, priority 2000, dated 2004).
# Target: T1, glycine binding site of the NMDA receptor channel (Rattus norvegicus, UniProt P35439)
# T1 construct: from tissue; host or cells: rat brain cortex and hippocampus membrane homogenate
# Test: Receptor binding, displacement of (3H)-MDL 105.519 on rat cerebral membrane homogenates
# Details: 10 μmol/l test substance; 1 nmol/l (3H)-MDL 105.519; read-out: Displacement (%, 10 μmol/l) of radioactive ligand from specific binding
# Description: Receptor Binding (Glycine Binding Site of the NMDA Receptor Channel)
# Experiments to determine the affinity of the compounds according to the invention of Formula I to the glycine binding site of the NMDA receptor channel were carried out on cerebral membrane homogenates (homogenate of Cortex- and Hippocampus-Areal from the brain of male rats, Wistar strain) (B. M. Baron, B. W. Siegel, B. L. Harrison, R. S. Gross, C. and P. Towers, Journal of Pharmacology and Experimental Therapeutics, Vol. 279, p. 62, 1996).
# For this purpose, Cortex and Hippocampus from freshly removed rats' brains were dissected, homogenized in 5 mmol/l TRIS-acetate buffer, 0.32 mol/l sacharose pH 7.4 (10 ml/g fresh weight) with a Potter homogenizer (made by Braun/Melsungen, 10 piston strokes at 500 rpm) while cooling with ice and subsequently centrifuged for 10 minutes at 1,000 g and 4° C. The first supernatant material was collected and the sediment homogenized again with […] TRIS-acetate buffer, 0.32 mol/l safcharose pH 7.4 (5 ml/g original fresh weight) using the Potter homogenizer (10 piston strokes at 500 rpm) while cooling with ice and centrifuged for 10 minutes at 1,000 g and 4° C. The resultant supernatant material was combined with the supernatant material from the first centrifugation and centrifuged at 17,000 g for 20 minutes at 4° C. The supernatant material after this centrifugation was discarded, the membrane sediment taken up with 5 mmol/l TRIS-acetate buffer pH 8.0 (20 ml/g original fresh weight) and homogenized with 10 piston strokes at 500 rpm.
# The membrane homogenate was then incubated for 1 hour at 4° C. and centrifuged for 30 minutes at 50,000 g and 4° C. The supernatant material was discarded and the centrifuge tube with the membrane sediment sealed with parafilm and frozen for 24 hours at −20° C. The membrane sediment was thawed on the following day, taken up with ice-cold 5 mmol/l TRIS-acetate buffer, 0.1% saponin (w/v) pH 7.0 (10 ml/g original fresh weight), homogenized with 10 piston strokes at 500 rpm and subsequently centrifuged for 20 minutes at 50,00 g and 4° C. The resultant supernatant material was discarded, the sediment taken up in a small volume with 5 mmol/l TRIS-acetate buffer pH 7.0 (about 2 ml/g original fresh weight) and homogenized again with 10 piston strokes at 500 rpm. After determining the protein content, the membrane homogenate was adjusted to a protein concentration of 10 mg protein/ml using 5 mmol/l TRIS-acetate buffer pH 7.0 and frozen in aliquots for testing.
# For the receptor binding test, aliquots were thawed, diluted 1:10 with 5 mmol/l TRIS-acetate buffer pH 7.0, homogenized with 10 piston strokes at 500 rpm using the potter homogenizer (10 piston strokes at 500 rpm) while cooling with ice and centrifuged for 60 minutes at 55,000 g at 4° C. The supernatant material was decanted, the membrane sediment adjusted to a protein concentration of 1 mg/ml with ice-cold 50 mmol/l TRIS-acetate buffer pH 7.0, homogenized again with 10 piston strokes at 500 rpm and kept in suspension in the ice bath while stirring on a magnetic stirrer. 100 μl of this membrane homogenate per 1 ml of feedstock was used in each case in the receptor binding test (0.1 mg protein/ml in the final batch).
# In the binding test, 50 mmol/l TRIS-acetate buffer pH 7.0 was used as buffer and 1 nmol/l (^3H)-MDL 105.519 (B. M. Baron et al 1996) was used as radioactive ligand. The proportion of unspecific binding was determined in the presence of 1 mmol/l glycine.
# In further batches, the compounds according to the invention were added in concentration series and the displacement of the radioactive ligand from its specific binding to the glycine binding site of the NMDA receptor channel determined. The respective triple batches were incubated for 120 minutes at 4° C. and then harvested to determine the radioactive ligands bound to the membrane homogenate by filtration through glass fiber filter mats (GF/B). […]
row,SMILES,inhibition at 10 µM
1,"CCOC(=O)C1CC(c2ccccc2)c2c(Cl)cc(Cl)cc2N1 (centres unmarked) [Example 14, 5,7-dichloro-4-phenyl-1,2,3,4-tetrahydroquinoline-2-carboxylic Acid Ethyl Ester]",38%
2,"O=C(O)C1CC(c2ccccc2)c2c(Cl)cc(Cl)cc2N1 (centres unmarked) [Example 15, 5,7-dichloro-4-phenyl-1,2,3,4-tetrahydroquinoline-2-carboxylic Acid]",75%
3,"CCOC(=O)C1CC(c2ccccc2C)c2c(Cl)cc(Cl)cc2N1 (centres unmarked) [Example 16, 5,7-dichloro-4-o-tolyl-1,2,3,4-tetrahydroquinoline-2-carboxylic Acid Ethyl Ester]",35%
4,"CCOC(=O)C1CC(c2cccc(C)c2)c2c(Cl)cc(Cl)cc2N1 (centres unmarked) [Example 17, 5,7-dichloro-4-m-tolyl-1,2,3,4-tetrahydroquinoline-2-carboxylic Acid Ester]",21%
5,"Cc1cccc(C2CC(C(=O)O)Nc3cc(Cl)cc(Cl)c32)c1 (centres unmarked) [Example 18, 5,7-dichloro-4-m-tolyl-1,2,3,4-tetrahydroquinoline-2-carboxylic Acid]",51%
6,"CCOC(=O)C1CC(c2ccc(C)cc2)c2c(Cl)cc(Cl)cc2N1 (centres unmarked) [Example 19, 5,7-dichloro-4-p-tolyl-1,2,3,4-tetrahydroquinoline-2-carboxylic Acid Ethyl Ester]",26%
7,"Cc1ccc(C2CC(C(=O)O)Nc3cc(Cl)cc(Cl)c32)cc1 (centres unmarked) [Example 20, 5,7-dichloro-4-p-tolyl-1,2,3,4-tetrahydroquinoline-2-Carboxylic Acid]",61%
8,"CCOC(=O)C1CC(c2ccc(C)cc2C)c2c(Cl)cc(Cl)cc2N1 (centres unmarked) [Example 21, 5,7-dichloro-4-(2,4-dimethylphenyl)-1,2,3,4-tetrahydroquinoline-2-carboxylic Acid Ethyl Ester]",26%
9,"Cc1ccc(C2CC(C(=O)O)Nc3cc(Cl)cc(Cl)c32)c(C)c1 (centres unmarked) [Example 22, 5,7-dichloro-4-(2,4-dimethylphenyl)-1,2,3,4-tetrahydroquinoline-2-carboxylic Acid]",68%
10,"O=C(O)C1CC(c2ccccc2F)c2c(Cl)cc(Cl)cc2N1 (centres unmarked) [Example 27, 5,7-dichloro-4-(2-fluorophenyl)-1,2,3,4-tetrahydroquinoline-2-carboxylic Acid]",75%
11,"CCOC(=O)C1CC(c2cccc(F)c2)c2c(Cl)cc(Cl)cc2N1 (centres unmarked) [Example 28, 5,7-dichloro-4-(3-fluorophenyl)-1,2,3,4-tetrahydroquinoline-2-carboxylic Acid Ethyl Ester]",35%
12,"O=C(O)C1CC(c2cccc(F)c2)c2c(Cl)cc(Cl)cc2N1 (centres unmarked) [Example 29, 5,7-dichloro-4-(3-fluorophenyl)-1,2,3,4-tetrahydroquinoline-2-carboxylic Acid]",78%
13,"CCOC(=O)C1CC(c2ccc(F)cc2)c2c(Cl)cc(Cl)cc2N1 (centres unmarked) [Example 30, 5,7-dichloro-4-(4-fluorophenyl)-1,2,3,4-tetrahydroquinoline-2-carboxylic Acid Ethyl Ester]",32%
14,"O=C(O)C1CC(c2ccc(F)cc2)c2c(Cl)cc(Cl)cc2N1 (centres unmarked) [Example 31, 5,7-dichloro-4-(4-fluorophenyl)-1,2,3,4-tetrahydroquinoline-2-carboxylic Acid]",58%
15,"O=C(O)C1CC(c2ccccc2Cl)c2c(Cl)cc(Cl)cc2N1 (centres unmarked) [Example 32, 5,7-dichloro-4-(2-chlorophenyl)-1,2,3,4-tetrahydroquinoline-2-carboxylic Acid]",92%
16,"CCOC(=O)C1CC(c2ccccc2Br)c2c(Cl)cc(Cl)cc2N1 (centres unmarked) [Example 36, 4-(2-bromophenyl)-5,7-dichloro-1,2,3,4-tetrahydroquinoline-2-carboxylic Acid Ethyl Ester]",46%

row,SMILES,inhibition at 10 µM
1,"O=C(O)C1CC(c2cccc(Br)c2)c2c(Cl)cc(Cl)cc2N1 (centres unmarked) [Example 38, 4-(3-bromophenyl)-5,7-dichloro-1,2,3,4-tetrahydroquinoline-2-carboxylic Acid]",72%
2,"O=C(O)C1CC(c2ccc(Br)cc2)c2c(Cl)cc(Cl)cc2N1 (centres unmarked) [Example 40, 4-(4-bromophenyl)-5,7-dichloro-1 ,2,3,4-tetrahydroquinoline-2-carboxylic Acid]",70%
3,"CCOC(=O)C1CC(c2cccc(C(F)(F)F)c2)c2c(Cl)cc(Cl)cc2N1 (centres unmarked) [Example 41, 5,7-dichloro-4-(3-trifluoromethylphenyl)-1,2,3,4-tetrahydroquinoline-2-carboxylic Acid Ethyl Ester]",38%
4,"CCOC(=O)C1Nc2cc(Cl)cc(Cl)c2C(c2ccccc2)C1C (centres unmarked) [Example 42, 5,7-dichloro-3-methyl-4-phenyl-1,2,3,4-tetrahydroquinoline-2-carboxylic Acid Ethyl Ester]",21%
5,"CCOC(=O)C1CC(c2ccc(F)cc2)c2cc(Cl)ccc2N1 (centres unmarked) [Example 51, 6-chloro-4-(4-fluorophenyl)-1,2,3,4-tetrahydroquinoline-2-carboxylic Acid Ethyl Ester]",21%
6,"CCOC(=O)C1CC(c2ccccc2Cl)c2cc(Cl)ccc2N1 (centres unmarked) [Example 52, 6-chloro-4-(2-chlorophenyl)-1,2,3,4-tetrahydroquinoline-2-carboxylic Acid Ethyl Ester]",22%
7,"CCOC(=O)C1CC(c2ccccc2Br)c2cc(Cl)ccc2N1 (centres unmarked) [Example 54, 6-chloro-4-(2-bromophenyl)-1,2,3,4-tetrahydroquinoline-2-carboxylic Acid Ethyl Ester]",22%
8,"CCOC(=O)C1Nc2cc(Cl)cc(Cl)c2C2CCCC12 (centres unmarked) [Example 59, 7,9-dichloro-2,3,3a,4,5,9b-hexahydro-1H-cyclopenta[c]quinoline-4-carboxylic Acid Ethyl Ester]",14%
9,"CCOC(=O)C1Nc2cc(Cl)cc(Cl)c2C2C3CCC(C3)C12 (centres unmarked) [Example 60, 1,3-dichloro-7,10-methano-5,6,6a,7,8,9,10,10a-octahydrophenanthridine-6-carboxylic Acid Ethyl Ester]",23%
10,CCOC(=O)C1Nc2cc(Cl)cc(Cl)c2C2c3ccccc3CC12 (centres unmarked) [Example 61],15%
11,"O=C(O)C1CC(c2ccc3ccccc3c2)c2cc(F)cc(Cl)c2N1 (centres unmarked) [Example 81, 8-chloro-6-fluoro-4-naphthalene-2-yl-1,2,3,4-tetrahydroquinoline-2-carboxylic acid]",66%
12,"COc1ccc(C2c3cc(Oc4ccccc4)ccc3NC(C(=O)O)C2C)cc1 (centres unmarked) [Example 82, 4-(4-methoxyphenyl)-3-methyl-6-phenoxy-1,2,3,4-tetrahydroquinoline-2-carboxylic acid]",96%
13,"Cc1cccc(C2CC(C(=O)O)Nc3c(F)cc(Cl)cc32)c1 (centres unmarked) [Example 83, 6-chloro-8-fluoro-4-m-tolyl-1,2,3,4-tetrahydroquinoline-2-carboxylic acid]",93%
14,"Cc1cccc(C2CC(C(=O)O)Nc3c(Cl)cc(F)cc32)c1 (centres unmarked) [Example 84, 8-chloro-6-fluoro-4-m-tolyl-1,2,3,4-tetrahydroquinoline-2-carboxylic acid]",79%
15,"O=C(O)C1CC(c2ccc(Br)cc2)c2cc(Cl)cc(F)c2N1 (centres unmarked) [Example 85, 4-(4-bromophenyl)-6-chloro-8-fluoro-1,2,3,4-tetrahydroquinoline-2-carboxylic acid]",61%
16,"Cc1ccc(C2CC(C(=O)O)Nc3c2ccc(Cl)c3Cl)c(C)c1 (centres unmarked) [Example 86, 7,8-dichloro-4-(2,4-dimethylphenyl)-1,2,3,4-tetrahydroquinoline-2-carboxylic acid]",33%
